According to patent US12692232B2, “Indole carboxamide compound, preparation therefor and use thereof” (NANJING RUISHUNING MEDICAL TECHNOLOGY CO., LTD., priority 2021, dated 2026):

Biological target: T1, TRPC6 channel (Homo sapiens, UniProt Q9Y210)
T1 sequence (Q9Y210 1-931): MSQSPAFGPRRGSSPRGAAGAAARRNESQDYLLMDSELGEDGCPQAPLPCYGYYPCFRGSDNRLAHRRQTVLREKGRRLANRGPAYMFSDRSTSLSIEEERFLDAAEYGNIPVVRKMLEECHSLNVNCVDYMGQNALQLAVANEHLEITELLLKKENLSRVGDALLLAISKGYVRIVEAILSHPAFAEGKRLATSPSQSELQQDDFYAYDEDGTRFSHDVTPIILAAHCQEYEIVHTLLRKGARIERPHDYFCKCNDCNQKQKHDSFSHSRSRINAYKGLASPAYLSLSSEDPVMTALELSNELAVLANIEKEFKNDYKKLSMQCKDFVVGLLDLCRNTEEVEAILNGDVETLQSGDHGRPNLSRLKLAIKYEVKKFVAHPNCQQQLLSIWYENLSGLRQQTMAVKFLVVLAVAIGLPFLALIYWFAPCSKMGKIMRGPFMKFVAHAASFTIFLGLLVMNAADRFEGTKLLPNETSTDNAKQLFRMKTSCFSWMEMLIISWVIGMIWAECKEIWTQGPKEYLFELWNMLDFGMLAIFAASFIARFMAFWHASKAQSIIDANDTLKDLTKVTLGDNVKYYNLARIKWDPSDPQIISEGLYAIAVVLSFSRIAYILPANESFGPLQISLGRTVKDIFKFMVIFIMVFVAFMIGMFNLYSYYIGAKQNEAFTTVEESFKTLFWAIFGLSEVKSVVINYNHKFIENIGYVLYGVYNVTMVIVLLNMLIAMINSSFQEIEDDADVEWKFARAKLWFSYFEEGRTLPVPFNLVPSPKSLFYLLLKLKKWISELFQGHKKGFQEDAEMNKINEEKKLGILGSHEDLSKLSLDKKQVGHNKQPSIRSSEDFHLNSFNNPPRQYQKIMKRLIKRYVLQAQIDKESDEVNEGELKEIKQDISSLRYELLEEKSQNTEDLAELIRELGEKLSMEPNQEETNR
Test: Inhibition of TRPC6 channel-mediated Ca2+ entry in HEK293hTRPC6 cells (Fura-2/AM, single concentration)
Type: cell-based
Parameters: expressed in transfected cells; host or cells: HEK293 (lentiviral transduction, puromycin selection)
Settings: compound 80 μM, OAG 80 μM; for inhibition at 80 µM: read-out: inhibition of Ca2+ entry into the cells via TRPC6 channels compared with the solvent control group
Procedure: The inhibitory effect of the compounds of the present invention (as exemplified by Compound 1-1 obtained in Example 1) on TRPC6 channel-mediated Ca^2+ entry was determined using HEK293hTRPC6 as a tool cell overexpressing TRPC6 protein. The method was as follows:
Establishment of HEK293hTRPC6, a tool cell overexpressing TRPC6 protein: human embryonic kidney cells HEK293 were placed in DMEM culture medium (containing 10% inactivated fetal bovine serum, 100 U-mL^−1 penicillin, and 100 mg-L^−1 streptomycin) and cultured at 37° C. in a 5% CO2 incubator. Cells in the logarithmic growth phase were harvested at 50% and incubated with 25 μL of LV105-TRPC6 lentiviral particle suspension for 24 hours, and then the medium was changed. The experiment included a negative control group (no-load lentivirus) and a blank control group. The medium containing 2 μg/mL puromycin was changed after 48 h of infection until the cells in the blank group died. Western Blot assay was performed to detect the expression of TRPC6 protein in the cells to verify the successful construction of HEK293hTRPC6 cell.
Determination of the effect of the compounds on changes in intracellular calcium ion concentration ([Ca^2+]i) in HEK293hTRPC6 cells: HEK293hTRPC6 cell suspension was added to a 24-well plate with a coverslip and incubated at 37° C. in a 5% CO2 incubator for 24 h. The cell crawls were then removed and placed in the fluorescent dye Fura-2/AM, and incubated for 20 min at room temperature away from light. The slides were placed in the center of the bath, perfused with calcium-free Tyrode's solution for 5 min and fixed on the stage of an inverted fluorescence microscope. […] Fluorescence intensity was measured at different excitation wavelengths (340 nm, 380 nm) using a TILL Ion Imaging system (TILLvisION), and the value of fluorescence intensity emitted by intracellular fluorescent probe at different excitation wavelengths was substituted into the formula: [Ca^2+]i=Kd×β×(R−Rmin)/[…]. In the formula, R represents the experimentally determined fluorescence ratio (F340/F380); Kd represents the dissociation constant for the reaction of Fura-2/AM with Ca^2+, which is 386 nmol/L under physiological conditions; Rmax represents the F340/F380 when Ca^2+ is saturated (all Fura-2/AM is bound to Ca^2+); Rmin represents the F340/F380 when there is no Ca^2+; and β represents the ratio of fluorescence intensities at 380 nm in the absence of Ca^2+ and when Ca^2+ is saturated.
Experimental results: the amount of TRPC6-mediated Ca^2+ entry under conditions of open TRPC6 channels and the presence of extracellular Ca^2+ was measured, and the actual biological activity of the compounds was assessed by comparison with the solvent control.

Structure (SMILES)	amount of TRPC6-mediated Ca2+ entry	inhibition at 80 µM
Cn1c(C(=O)NCCC(=O)O)cc2ccccc21 [3-[(1-methyl-1H-indole-2-carbonyl)amino]propionic acid, reference compound]	0.10±0.01	53.9%
CC(=O)OCCCNC(=O)c1c(C=O)c2ccccc2n1C [compound 1-1, propyl 3-[(3-formyl-1-methyl-1H-indole-2-carbonyl)amino]acetate]	0.06±0.01	79.9%
